IC50 data for ten compounds are collected here from patent US5631222A, “Endothelin-antagonizing peptide” (Kyowa Hakko Kogyo Co., Ltd., priority 1993, dated 1997).

Molecules are shown by their SMILES. Non-standard residues stand in square brackets, D forms with d. Residues, ends and D or L forms follow the SMILES beside them. NMeI = CC[C@H](C)[C@H](NC)C(=O)O; 2Thi = N[C@@H](Cc1cccs1)C(=O)O; NMeL = CN[C@@H](CC(C)C)C(=O)O; Phg = N[C@H](C(=O)O)c1ccccc1; Nle = CCCC[C@H](N)C(=O)O; Nva = CCC[C@H](N)C(=O)O; Abu = CC[C@H](N)C(=O)O

In the experiment the target is T1, endothelin receptor (Bos taurus, UniProt P28088).
T1 construct: the suspension was used as a membrane fraction liquid; from tissue; host or cells: bovine cerebellum membrane fraction
T1 sequence (P28088 27-441): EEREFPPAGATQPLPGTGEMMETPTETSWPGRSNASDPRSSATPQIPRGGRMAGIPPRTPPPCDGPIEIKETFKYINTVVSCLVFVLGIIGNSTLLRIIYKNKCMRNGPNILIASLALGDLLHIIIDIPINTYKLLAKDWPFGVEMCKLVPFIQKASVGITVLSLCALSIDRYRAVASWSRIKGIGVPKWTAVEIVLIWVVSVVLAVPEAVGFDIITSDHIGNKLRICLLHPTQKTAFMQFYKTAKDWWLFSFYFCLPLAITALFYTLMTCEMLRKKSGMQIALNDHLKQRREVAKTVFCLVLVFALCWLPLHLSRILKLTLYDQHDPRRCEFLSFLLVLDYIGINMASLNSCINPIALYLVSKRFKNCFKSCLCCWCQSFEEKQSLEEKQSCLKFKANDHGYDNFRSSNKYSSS
Kind of experiment: Endothelin receptor-antagonizing activity: inhibition of 125I-endothelin-1 binding to bovine cerebellum membrane fraction. As to conditions: 125I-Endothelin-1, bovine cerebellum membrane fraction, 25° C. for 2 hours; read-out: IC50: Concentration causing 50% inhibition of endothelin1 binding. The protocol: Bovine cerebellum tissue was homogenized at 4° C. by using POLYTRON (type PT10/35, manufactured by Kinematic Gmbh Co.) in a buffer solution A (1 mM NaHCO3, 5 mM ethylenediaminetetraacetic acid, 5 μg/ml leupeptin, 5 μg/ml pepstatin A, 40 μM phenylmethylsulfonyl fluoride, pH 8.3).
The obtained suspension was centrifuged for 10 minutes at 8,000 G and 4° C., and the resulting supernatant was centrifuged for 60 minutes at 40,000 G and 4° C. to obtain pellets. The obtained pellets were suspended in a buffer solution A and again centrifuged for 60 minutes at 40,000 G and 4° C. The resulting solid substance was prepared as a suspension containing 2 mg/ml of protein, and the suspension was used as a membrane fraction liquid. […] These mixtures were incubated at 25° C. for 2 hours, and then filtered with a GF/B glass filter (produced by Whatman Co.). […] The inhibition ratio against endothelin receptor binding activity was calculated according to the following equation:
Inhibition ratio (%)=(C-A/C-B)×100
B: Radioactivity in the presence of unlabelled endothelin-1
C: Radioactivity in the absence of both of the compound shown in Table 2 and unlabelled endothelin-1
`CC[C@H](NC(=O)[C@@H](NC(=O)[C@H](CC(C)C)NC(=O)[C@H](Cc1c[nH]cn1)NC(=O)[C@H](C)NC(=O)[C@H](Cc1ccccc1)NC(=O)[C@H](Cc1ccc(O)cc1)NC(=O)[C@@H](NC(=O)[C@H](Cc1c[nH]c2ccccc12)NC(=O)[C@H](CC(=O)O)NC(=O)[C@@H]1CCCN1C(=O)[C@H](C)NC(=O)[C@@H](NC(=O)CNC(=O)[C@H](Cc1c[nH]cn1)NC(=O)[C@H](Cc1c[nH]c2ccccc12)NC(=O)[C@H](CC(N)=O)NC(=O)CN)[C@@H](C)O)C(C)C)[C@@H](C)O)C(=O)N[C@H](C(=O)N[C@@H](Cc1c[nH]c2ccccc12)C(=O)O)[C@@H](C)CC` [Compound 15, HGlyAsnTrpHisGlyThrAlaProAspTrpValTyrPheAlaHisLeuThrAbuIleTrpOH] (H-GNWHGTAPDWVYFAHLT[Abu]IW-OH): the IC50 amounted to 0.11 nM.
For `CC[C@H](C)[C@H](NC(=O)[C@H](CC(C)C)N(C)C(=O)[C@@H](NC(=O)[C@H](CC(C)C)NC(=O)[C@H](Cc1c[nH]cn1)NC(=O)[C@H](C)NC(=O)[C@H](Cc1ccccc1)NC(=O)[C@H](Cc1ccc(O)cc1)NC(=O)[C@@H](NC(=O)[C@H](Cc1c[nH]c2ccccc12)NC(=O)[C@H](CC(=O)O)NC(=O)[C@@H]1CCCN1C(=O)[C@H](C)NC(=O)[C@@H](NC(=O)CNC(=O)[C@H](Cc1c[nH]cn1)NC(=O)[C@H](Cc1c[nH]c2ccccc12)NC(=O)[C@H](CC(N)=O)NC(=O)CN)[C@@H](C)O)C(C)C)[C@@H](C)O)C(=O)N[C@@H](Cc1c[nH]c2ccccc12)C(=O)O` [Compound 23, HGlyAsnTrpHisGlyThrAlaProAspTrpValTyrPheAlaHisLeuThrMeLeuIleTrpOH] (H-GNWHGTAPDWVYFAHLT[NMeL]IW-OH) the value was 54 nM.
Consider `CC[C@H](C)[C@H](NC(=O)[C@H]([C@@H](C)CC)N(C)C(=O)[C@@H](NC(=O)[C@H](CC(C)C)NC(=O)[C@H](Cc1c[nH]cn1)NC(=O)[C@H](C)NC(=O)[C@H](Cc1ccccc1)NC(=O)[C@H](Cc1ccc(O)cc1)NC(=O)[C@@H](NC(=O)[C@H](Cc1c[nH]c2ccccc12)NC(=O)[C@H](CC(=O)O)NC(=O)[C@@H]1CCCN1C(=O)[C@H](C)NC(=O)[C@@H](NC(=O)CNC(=O)[C@H](Cc1c[nH]cn1)NC(=O)[C@H](Cc1c[nH]c2ccccc12)NC(=O)[C@H](CC(N)=O)NC(=O)CN)[C@@H](C)O)C(C)C)[C@@H](C)O)C(=O)N[C@@H](Cc1c[nH]c2ccccc12)C(=O)O` [Compound 24, HGlyAsnTrpHisGlyThrAlaProAspTrpValTyrPheAlaHisLeuThrMeIleIleTrpOH] (H-GNWHGTAPDWVYFAHLT[NMeI]IW-OH), for which the IC50 turned out to be 50 nM.
For `CC[C@H](C)[C@H](NC(=O)[C@@H](NC(=O)[C@@H](NC(=O)[C@H](CC(C)C)NC(=O)[C@H](Cc1c[nH]cn1)NC(=O)[C@H](C)NC(=O)[C@H](Cc1ccccc1)NC(=O)[C@H](Cc1ccc(O)cc1)NC(=O)[C@@H](NC(=O)[C@H](Cc1c[nH]c2ccccc12)NC(=O)[C@H](CC(=O)O)NC(=O)[C@@H]1CCCN1C(=O)[C@H](C)NC(=O)[C@@H](NC(=O)CNC(=O)[C@H](Cc1c[nH]cn1)NC(=O)[C@H](Cc1c[nH]c2ccccc12)NC(=O)[C@H](CC(N)=O)NC(=O)CN)[C@@H](C)O)C(C)C)[C@@H](C)O)c1ccccc1)C(=O)N[C@@H](Cc1c[nH]c2ccccc12)C(=O)O` [Compound 25, HGlyAsnTrpHisGlyThrAlaProAspTrpValTyrPheAlaHisLeuThrPhgIleTrpOH] (H-GNWHGTAPDWVYFAHLT[Phg]IW-OH) the value was 0.58 nM.
For `CCCC[C@H](NC(=O)[C@@H](NC(=O)[C@H](CC(C)C)NC(=O)[C@H](Cc1c[nH]cn1)NC(=O)[C@H](C)NC(=O)[C@H](Cc1ccccc1)NC(=O)[C@H](Cc1ccc(O)cc1)NC(=O)[C@@H](NC(=O)[C@H](Cc1c[nH]c2ccccc12)NC(=O)[C@H](CC(=O)O)NC(=O)[C@@H]1CCCN1C(=O)[C@H](C)NC(=O)[C@@H](NC(=O)CNC(=O)[C@H](Cc1c[nH]cn1)NC(=O)[C@H](Cc1c[nH]c2ccccc12)NC(=O)[C@H](CC(N)=O)NC(=O)CN)[C@@H](C)O)C(C)C)[C@@H](C)O)C(=O)N[C@H](C(=O)N[C@@H](Cc1c[nH]c2ccccc12)C(=O)O)[C@@H](C)CC` [Compound 26, HGlyAsnTrpHisGlyThrAlaProAspTrpValTyrPheAlaHisLeuThrNleIleTrpOH] (H-GNWHGTAPDWVYFAHLT[Nle]IW-OH), the IC50 amounted to 0.63 nM.
Take `CC[C@H](C)[C@H](NC(=O)[C@H](Cc1cccs1)NC(=O)[C@@H](NC(=O)[C@H](CC(C)C)NC(=O)[C@H](Cc1c[nH]cn1)NC(=O)[C@@H](C)NC(=O)[C@H](Cc1ccccc1)NC(=O)[C@H](Cc1ccc(O)cc1)NC(=O)[C@@H](NC(=O)[C@H](Cc1c[nH]c2ccccc12)NC(=O)[C@H](CC(=O)O)NC(=O)[C@@H]1CCCN1C(=O)[C@H](C)NC(=O)[C@@H](NC(=O)CNC(=O)[C@H](Cc1c[nH]cn1)NC(=O)[C@H](Cc1c[nH]c2ccccc12)NC(=O)[C@H](CC(N)=O)NC(=O)CN)[C@@H](C)O)C(C)C)[C@@H](C)O)C(=O)N[C@@H](Cc1c[nH]c2ccccc12)C(=O)O` [Compound 27, HGlyAsnTrpHisGlyThrAlaProAspTrpValTyrPheD-AlaHisLeuThrThiIleTrpOH] (H-GNWHGTAPDWVYF[dA]HLT[2Thi]IW-OH): the IC50 is 4.9 nM.
For `CC[C@H](C)[C@H](NC(=O)[C@H](Cc1cccs1)NC(=O)[C@@H](NC(=O)[C@H](CC(C)C)NC(=O)[C@@H](Cc1c[nH]c2ccccc12)NC(=O)[C@H](C)NC(=O)[C@H](Cc1ccccc1)NC(=O)[C@H](Cc1ccc(O)cc1)NC(=O)[C@@H](NC(=O)[C@H](Cc1c[nH]c2ccccc12)NC(=O)[C@H](CC(=O)O)NC(=O)[C@@H]1CCCN1C(=O)[C@H](C)NC(=O)[C@@H](NC(=O)CNC(=O)[C@H](Cc1c[nH]cn1)NC(=O)[C@H](Cc1c[nH]c2ccccc12)NC(=O)[C@H](CC(N)=O)NC(=O)CN)[C@@H](C)O)C(C)C)[C@@H](C)O)C(=O)N[C@@H](Cc1c[nH]c2ccccc12)C(=O)O` [Compound 28, HGlyAsnTrpHisGlyThrAlaProAspTrpValTyrPheAlaD-TrpLeuThrThiIleTrpOH] (H-GNWHGTAPDWVYFA[dW]LT[2Thi]IW-OH) the value was 89 nM; for `CCC[C@H](NC(=O)[C@H](Cc1c[nH]cn1)NC(=O)[C@H](C)NC(=O)[C@H](Cc1ccccc1)NC(=O)[C@H](Cc1ccc(O)cc1)NC(=O)[C@@H](NC(=O)[C@H](Cc1c[nH]c2ccccc12)NC(=O)[C@H](CC(=O)O)NC(=O)[C@@H]1CCCN1C(=O)[C@H](C)NC(=O)[C@@H](NC(=O)CNC(=O)[C@H](Cc1c[nH]cn1)NC(=O)[C@H](Cc1c[nH]c2ccccc12)NC(=O)[C@H](CC(N)=O)NC(=O)CN)[C@@H](C)O)C(C)C)C(=O)N[C@H](C(=O)N[C@@H](Cc1cccs1)C(=O)N[C@H](C(=O)N[C@@H](Cc1c[nH]c2ccccc12)C(=O)O)[C@@H](C)CC)[C@@H](C)O` [Compound 29, HGlyAsnTrpHisGlyThrAlaProAspTrpValTyrPheAlaHisNvaThrThiIleTrpOH] (H-GNWHGTAPDWVYFAH[Nva]T[2Thi]IW-OH), 0.37 nM.
`CC[C@H](C)[C@H](NC(=O)[C@H](Cc1cccs1)NC(=O)CNC(=O)[C@H](CC(C)C)NC(=O)[C@H](Cc1c[nH]cn1)NC(=O)[C@H](C)NC(=O)[C@H](Cc1ccccc1)NC(=O)[C@H](Cc1ccc(O)cc1)NC(=O)[C@@H](NC(=O)[C@H](Cc1c[nH]c2ccccc12)NC(=O)[C@H](CC(=O)O)NC(=O)[C@@H]1CCCN1C(=O)[C@H](C)NC(=O)[C@@H](NC(=O)CNC(=O)[C@H](Cc1c[nH]cn1)NC(=O)[C@H](Cc1c[nH]c2ccccc12)NC(=O)[C@H](CC(N)=O)NC(=O)CN)[C@@H](C)O)C(C)C)C(=O)N[C@@H](Cc1c[nH]c2ccccc12)C(=O)O` [Compound 30, HGlyAsnTrpHisGlyThrAlaProAspTrpValTyrPheAlaHisLeuGlyThiIleTrpOH] (H-GNWHGTAPDWVYFAHLG[2Thi]IW-OH): the IC50 was determined as 170 nM.
Consider `CC[C@@H](C)[C@@H](NC(=O)[C@H](Cc1cccs1)NC(=O)[C@@H](NC(=O)[C@H](CC(C)C)NC(=O)[C@H](Cc1c[nH]cn1)NC(=O)[C@H](C)NC(=O)[C@H](Cc1ccccc1)NC(=O)[C@H](Cc1ccc(O)cc1)NC(=O)[C@@H](NC(=O)[C@H](Cc1c[nH]c2ccccc12)NC(=O)[C@H](CC(=O)O)NC(=O)[C@@H]1CCCN1C(=O)[C@H](C)NC(=O)[C@@H](NC(=O)CNC(=O)[C@H](Cc1c[nH]cn1)NC(=O)[C@H](Cc1c[nH]c2ccccc12)NC(=O)[C@H](CC(N)=O)NC(=O)CN)[C@@H](C)O)C(C)C)[C@@H](C)O)C(=O)N[C@@H](Cc1c[nH]c2ccccc12)C(=O)O` [Compound 31, HGlyAsnTrpHisGlyThrAlaProAspTrpValTyrPheAlaHisLeuThrThiD-IleTrpOH] (H-GNWHGTAPDWVYFAHLT[2Thi][dI]W-OH), for which the IC50 was 210 nM.
